Like-named read-outs stand apart in the source and are kept apart here.
Key:
Type in all cases: biochemical
PI3K α (p110α/p85α) = molecular target: T1, PI3K α (p110α/p85α) (Homo sapiens, UniProt P42336); experiment: PI 3-Kinase (human) HTRF assay, PI3K α; conditions: read-out: PI3K α IC50
T1 construct: purchased Upstate / Millipore Corporation

PI3K β (p110β/p85α) = molecular target: T2, PI3K β (p110β/p85α) (Homo sapiens, UniProt P42338); experiment: PI 3-Kinase (human) HTRF assay, PI3K β; conditions: read-out: PI3K β IC50
T2 construct: purchased Upstate / Millipore Corporation

PI3K γ (p110γ) = molecular target: T3, PI3K γ (p110γ) (Homo sapiens, UniProt P48736); experiment: PI 3-Kinase (human) HTRF assay, PI3K γ; conditions: read-out: PI3K γ IC50
T3 construct: purchased Upstate / Millipore Corporation

PI3K δ = molecular target: T4, PI3K δ (Homo sapiens, UniProt O00329); experiment: PI 3-Kinase (human) HTRF assay, PI3K δ; conditions: read-out: PI3K δ IC50
T4 construct: purchased Upstate / Millipore Corporation
T4 sequence (O00329 whole entry): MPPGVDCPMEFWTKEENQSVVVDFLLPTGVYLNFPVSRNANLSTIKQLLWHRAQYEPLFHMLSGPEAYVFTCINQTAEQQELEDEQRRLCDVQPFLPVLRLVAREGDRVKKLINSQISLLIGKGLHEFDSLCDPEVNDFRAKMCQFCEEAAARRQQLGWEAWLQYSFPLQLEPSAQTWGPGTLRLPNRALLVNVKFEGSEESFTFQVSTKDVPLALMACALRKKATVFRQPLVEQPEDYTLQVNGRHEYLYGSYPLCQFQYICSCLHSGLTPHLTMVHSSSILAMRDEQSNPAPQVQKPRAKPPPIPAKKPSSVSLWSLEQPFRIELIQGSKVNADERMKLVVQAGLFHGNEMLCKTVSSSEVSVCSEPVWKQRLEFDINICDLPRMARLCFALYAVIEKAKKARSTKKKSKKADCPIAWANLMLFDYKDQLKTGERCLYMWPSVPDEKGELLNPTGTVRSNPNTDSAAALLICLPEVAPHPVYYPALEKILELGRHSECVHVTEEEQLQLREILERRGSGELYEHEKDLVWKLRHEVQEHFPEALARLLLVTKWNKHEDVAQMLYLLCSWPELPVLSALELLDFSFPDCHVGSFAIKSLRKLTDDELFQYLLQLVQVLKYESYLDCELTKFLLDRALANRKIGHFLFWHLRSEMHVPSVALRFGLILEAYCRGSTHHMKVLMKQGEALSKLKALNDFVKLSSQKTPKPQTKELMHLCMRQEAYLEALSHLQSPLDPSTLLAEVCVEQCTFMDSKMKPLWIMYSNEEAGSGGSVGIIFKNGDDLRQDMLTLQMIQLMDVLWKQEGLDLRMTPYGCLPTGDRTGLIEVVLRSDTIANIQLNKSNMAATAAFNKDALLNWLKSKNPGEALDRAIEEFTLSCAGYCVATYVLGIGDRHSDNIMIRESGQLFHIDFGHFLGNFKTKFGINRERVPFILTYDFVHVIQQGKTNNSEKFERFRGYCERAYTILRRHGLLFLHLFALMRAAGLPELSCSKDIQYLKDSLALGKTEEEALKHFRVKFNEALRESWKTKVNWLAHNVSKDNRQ
T4 sequence (P27986 whole entry partner): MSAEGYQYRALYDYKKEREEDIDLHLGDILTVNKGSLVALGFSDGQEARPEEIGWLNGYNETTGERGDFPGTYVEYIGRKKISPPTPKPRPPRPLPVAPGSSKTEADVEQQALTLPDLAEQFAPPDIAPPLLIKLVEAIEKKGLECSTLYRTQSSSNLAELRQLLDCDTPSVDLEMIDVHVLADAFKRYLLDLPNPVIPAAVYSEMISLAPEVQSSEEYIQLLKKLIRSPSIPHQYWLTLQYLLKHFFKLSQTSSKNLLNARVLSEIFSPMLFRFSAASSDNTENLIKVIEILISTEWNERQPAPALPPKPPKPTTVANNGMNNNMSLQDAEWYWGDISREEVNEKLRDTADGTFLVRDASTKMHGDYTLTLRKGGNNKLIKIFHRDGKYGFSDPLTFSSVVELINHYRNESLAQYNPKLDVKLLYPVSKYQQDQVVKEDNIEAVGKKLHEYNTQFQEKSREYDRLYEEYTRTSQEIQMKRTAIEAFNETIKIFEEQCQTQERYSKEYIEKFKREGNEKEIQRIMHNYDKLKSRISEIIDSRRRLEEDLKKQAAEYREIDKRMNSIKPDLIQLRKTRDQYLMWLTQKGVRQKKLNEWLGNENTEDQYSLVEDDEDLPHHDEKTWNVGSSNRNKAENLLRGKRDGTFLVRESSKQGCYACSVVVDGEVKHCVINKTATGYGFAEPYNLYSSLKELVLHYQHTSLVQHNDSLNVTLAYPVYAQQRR
Procedure: Briefly, the assay is a time resolved FRET assay that indirectly measures PIP3 product formed by the activity of a PI3-K. The kinase reaction is performed in a microtiter plate (e.g., a 384 well microtiter plate). The total reaction volume is approximately 20 ul per well. In the first step, each well receives 2 ul of test compound in 20% dimethylsulphoxide resulting in a 2% DMSO final concentration. […] The plate is sealed and incubated for 15 minutes at room temperature. […] The plate is sealed and incubated for 1 hour at room temperature. The reaction is stopped by adding 5 ul of Stop Solution per well and then 5 ul of Detection Mix is added per well. The plate is sealed, incubated for 1 hour at room temperature, and then read on an appropriate plate reader. Data is analyzed and IC50s are generated using GraphPad Prism 5.

T1 sequence (P42336 whole entry): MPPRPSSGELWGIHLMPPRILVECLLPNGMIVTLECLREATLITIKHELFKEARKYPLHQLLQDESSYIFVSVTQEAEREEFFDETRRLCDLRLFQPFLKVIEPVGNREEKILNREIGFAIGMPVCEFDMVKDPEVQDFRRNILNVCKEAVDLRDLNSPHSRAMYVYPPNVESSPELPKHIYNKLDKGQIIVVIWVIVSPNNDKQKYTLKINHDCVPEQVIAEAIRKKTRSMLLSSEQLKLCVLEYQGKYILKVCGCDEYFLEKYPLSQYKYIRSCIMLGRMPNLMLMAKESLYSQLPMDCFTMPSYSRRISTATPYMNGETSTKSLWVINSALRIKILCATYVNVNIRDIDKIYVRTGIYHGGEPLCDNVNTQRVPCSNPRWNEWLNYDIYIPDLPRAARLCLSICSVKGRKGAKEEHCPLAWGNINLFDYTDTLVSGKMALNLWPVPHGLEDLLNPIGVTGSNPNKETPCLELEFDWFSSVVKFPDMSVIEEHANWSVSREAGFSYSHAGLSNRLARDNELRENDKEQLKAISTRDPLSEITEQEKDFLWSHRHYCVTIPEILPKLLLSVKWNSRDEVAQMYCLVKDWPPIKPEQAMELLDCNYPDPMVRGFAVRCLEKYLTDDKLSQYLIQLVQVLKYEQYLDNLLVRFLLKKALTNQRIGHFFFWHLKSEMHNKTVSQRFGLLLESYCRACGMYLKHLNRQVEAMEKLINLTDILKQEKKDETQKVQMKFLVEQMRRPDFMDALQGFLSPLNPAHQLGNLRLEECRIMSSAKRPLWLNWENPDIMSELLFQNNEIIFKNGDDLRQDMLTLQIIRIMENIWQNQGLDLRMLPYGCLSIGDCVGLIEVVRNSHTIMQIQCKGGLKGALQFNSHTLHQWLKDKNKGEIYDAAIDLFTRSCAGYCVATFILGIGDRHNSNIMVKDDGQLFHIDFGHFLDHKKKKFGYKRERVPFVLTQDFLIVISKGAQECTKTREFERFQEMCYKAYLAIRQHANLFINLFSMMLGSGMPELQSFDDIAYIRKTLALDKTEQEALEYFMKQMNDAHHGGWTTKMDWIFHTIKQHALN
T1 sequence (P27986 whole entry partner): as the sequence (P27986 whole entry partner) above
T3 sequence (P48736 whole entry): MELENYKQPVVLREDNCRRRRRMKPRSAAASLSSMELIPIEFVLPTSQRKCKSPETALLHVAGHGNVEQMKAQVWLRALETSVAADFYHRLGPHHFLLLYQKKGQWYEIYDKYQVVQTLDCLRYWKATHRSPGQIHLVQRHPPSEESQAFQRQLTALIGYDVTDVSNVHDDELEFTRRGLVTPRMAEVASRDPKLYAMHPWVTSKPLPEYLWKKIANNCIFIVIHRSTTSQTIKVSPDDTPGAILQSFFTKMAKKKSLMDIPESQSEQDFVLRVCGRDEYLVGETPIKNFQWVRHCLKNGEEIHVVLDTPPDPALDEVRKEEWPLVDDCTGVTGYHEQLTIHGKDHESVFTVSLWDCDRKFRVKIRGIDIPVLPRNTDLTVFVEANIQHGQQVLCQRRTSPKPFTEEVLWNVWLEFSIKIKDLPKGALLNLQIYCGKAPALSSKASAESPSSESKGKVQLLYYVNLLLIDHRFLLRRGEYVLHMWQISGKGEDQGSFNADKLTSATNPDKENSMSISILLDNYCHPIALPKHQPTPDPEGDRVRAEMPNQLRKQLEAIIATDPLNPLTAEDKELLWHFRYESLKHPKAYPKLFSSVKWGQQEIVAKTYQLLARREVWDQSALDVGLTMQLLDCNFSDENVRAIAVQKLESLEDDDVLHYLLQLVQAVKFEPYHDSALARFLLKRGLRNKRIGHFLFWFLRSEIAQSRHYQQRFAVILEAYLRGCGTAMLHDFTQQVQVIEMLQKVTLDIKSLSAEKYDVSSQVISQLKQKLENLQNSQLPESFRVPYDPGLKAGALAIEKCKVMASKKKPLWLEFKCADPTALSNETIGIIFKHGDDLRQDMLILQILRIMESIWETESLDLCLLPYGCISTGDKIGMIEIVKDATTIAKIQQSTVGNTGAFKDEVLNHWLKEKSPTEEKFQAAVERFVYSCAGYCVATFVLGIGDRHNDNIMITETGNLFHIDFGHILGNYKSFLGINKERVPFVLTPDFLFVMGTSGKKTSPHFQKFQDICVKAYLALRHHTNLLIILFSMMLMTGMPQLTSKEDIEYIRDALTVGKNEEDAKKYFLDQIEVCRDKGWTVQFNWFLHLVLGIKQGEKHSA
T2 sequence (P42338 whole entry): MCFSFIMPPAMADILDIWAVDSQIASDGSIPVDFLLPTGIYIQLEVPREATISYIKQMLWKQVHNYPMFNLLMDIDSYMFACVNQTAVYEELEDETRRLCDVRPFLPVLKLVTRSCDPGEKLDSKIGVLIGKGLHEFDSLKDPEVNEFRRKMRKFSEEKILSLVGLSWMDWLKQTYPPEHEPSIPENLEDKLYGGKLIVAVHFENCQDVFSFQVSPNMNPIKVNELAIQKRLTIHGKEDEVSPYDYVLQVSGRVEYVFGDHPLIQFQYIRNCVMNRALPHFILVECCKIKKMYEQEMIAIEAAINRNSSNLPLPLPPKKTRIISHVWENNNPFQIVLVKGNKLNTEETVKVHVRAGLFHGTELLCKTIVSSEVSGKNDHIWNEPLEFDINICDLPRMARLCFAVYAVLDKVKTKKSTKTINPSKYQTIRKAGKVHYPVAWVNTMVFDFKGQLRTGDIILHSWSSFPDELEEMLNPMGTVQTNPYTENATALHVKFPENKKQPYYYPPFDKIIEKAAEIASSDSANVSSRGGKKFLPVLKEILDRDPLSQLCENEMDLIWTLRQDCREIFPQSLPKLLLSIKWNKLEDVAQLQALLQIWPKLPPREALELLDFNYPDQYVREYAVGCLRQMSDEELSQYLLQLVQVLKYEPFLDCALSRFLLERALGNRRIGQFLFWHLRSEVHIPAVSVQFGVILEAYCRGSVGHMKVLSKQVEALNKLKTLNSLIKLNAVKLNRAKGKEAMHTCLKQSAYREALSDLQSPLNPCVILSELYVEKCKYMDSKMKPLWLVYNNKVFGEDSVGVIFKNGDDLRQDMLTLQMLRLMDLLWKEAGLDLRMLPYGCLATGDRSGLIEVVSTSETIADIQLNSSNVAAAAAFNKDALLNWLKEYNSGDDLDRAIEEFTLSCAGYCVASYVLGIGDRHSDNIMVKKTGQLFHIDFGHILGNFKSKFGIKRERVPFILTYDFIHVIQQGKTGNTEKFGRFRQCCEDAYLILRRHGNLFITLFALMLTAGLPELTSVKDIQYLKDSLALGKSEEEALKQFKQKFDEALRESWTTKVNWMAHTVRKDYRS
T2 sequence (P27986 whole entry partner): as the sequence (P27986 whole entry partner) above

Compound	IC50 (PI3K α (p110α/p85α))	IC50 (PI3K β (p110β/p85α))	IC50 (PI3K γ (p110γ))	IC50 (PI3K δ)	IC50 (PI3K β (p110β/p85α); Table 4 (PI3K α inhibitors))	IC50 (PI3K γ (p110γ); Table 4 (PI3K α inhibitors))	IC50 (PI3K δ; Table 4 (PI3K α inhibitors))	IC50 (PI3K α (p110α/p85α); Table 4 (PI3K α inhibitors))
CCN1CCC(n2cnc3ccc(-c4ccc5oc(N)nc5c4)cc3c2=O)CC1 [Compound 73]	< 1 µM	< 10 µM	> 10 µM	> 10 µM				
Nc1nc2cc(-c3ccc4sc(N)nc4c3)ccc2o1 [Compound 248]	< 10 µM	< 1 µM	< 1 µM	< 10 µM				
CC(C)N1CCC(Nc2ncnc3ccc(-c4ccc5oc(N)nc5c4)cc23)CC1 [Compound 101]	< 0.1 µM	< 10 µM	< 10 µM	< 1 µM				
Nc1nc2cc(-c3ccc4ncc(-c5ccc(N6CCOCC6)nc5)nc4c3)ccc2o1 [Compound 167]	< 10 µM	> 10 µM	> 10 µM	> 10 µM				
Nc1nc2cc(-c3ccc4ncc(N5CCN(C(=O)C6(N)CCC6)CC5)nc4c3)ccc2o1 [Compound 286]	< 0.1 µM	< 1 µM	< 0.1 µM	< 1 µM				
CC(C)N1CCN(C2CN(c3cnc4ccc(-c5ccc6oc(N)nc6c5)nc4n3)C2)CC1 [Compound 628]					> 10 µM	> 10 µM	> 10 µM	
O=C(c1cnc2ccc(-c3cnc4cc[nH]c4c3)cn12)N1CCOCC1 [Compound 534]		> 10 µM	> 10 µM	> 10 µM				
Nc1nc2cc(-c3ccc4ncn(CCO)c(=O)c4c3)ccc2o1 [Compound 184]	< 0.1 µM	< 10 µM	< 1 µM	> 10 µM				
CC(=O)Nc1cn2cc(-c3ccc4nccc(-c5ccncc5)c4c3)ccc2n1 [Compound 19]	> 10 µM	> 10 µM	> 10 µM	> 10 µM				
Nc1nc2cc(-c3ccc4ncc(C(=O)NCCCN5CCOCC5)n4c3)ccc2o1 [Compound 288]	< 1 µM	< 1 µM	< 10 µM	< 1 µM				
Nc1nc2cc(-c3ccc4ncc(-c5ccnc(N6CCOCC6)c5)nc4c3)ccc2o1 [Compound 150]	< 1 µM	> 10 µM	> 10 µM	> 10 µM				
CN1CCN(n2cnc3ccc(-c4ccc5oc(N)nc5c4)cc3c2=O)CC1 [Compound 518]	< 1 µM	> 10 µM	> 10 µM	> 10 µM				
CN1CCN(CCCn2cnc3ccc(-c4ccc5oc(N)nc5c4)cc3c2=O)CC1 [Compound 291]	< 1 µM	> 10 µM	> 10 µM	> 10 µM				
Nc1nc2ccc(-c3ccc4ncc(C(=O)N5CCOCC5)n4c3)cc2o1 [Compound 124]	< 1 µM	< 1 µM	< 1 µM	> 10 µM				
Nc1nc2cc(-c3ccc4ncc(N5CC(N6CCOCC6)C5)nc4c3)c(Cl)cc2o1 [Compound 371]	< 1 µM	< 10 µM	> 10 µM	> 10 µM				
CN1CCN(C(=O)c2cnc3ccc(-c4ccc5nc(N)sc5c4)cn23)CC1 [Compound 146]	< 10 µM	< 10 µM	> 10 µM	> 10 µM				
Cc1cc(-c2ccc3ncc(C(=O)N4CCOCC4)n3c2)cc2nc(N)oc12 [Compound 364]	< 1 µM	< 10 µM	< 1 µM	> 10 µM				
Nc1nc2cc(-c3ccc4ncc(C(=O)N5CCOCC5)nc4c3)ccc2o1 [Compound 158]	< 10 µM	> 10 µM	> 10 µM	> 10 µM				
COc1ccc(-c2ccc3ncc(C(=O)N4CCOCC4)n3c2)cc1NS(C)(=O)=O [Compound 456]	> 10 µM	> 10 µM	> 10 µM	> 10 µM				
Nc1nc2cc(-c3ccn4ncc(C(=O)N5CCOCC5)c4c3)ccc2o1 [Compound 347]	< 1 µM	< 10 µM	< 1 µM	> 10 µM				
Nc1nc2cc(-c3ccc4ncc(N5CCC(O)CC5)nc4c3)ccc2o1 [Compound 99]	< 0.1 µM	< 10 µM	< 1 µM	< 1 µM				

Compound	IC50 (PI3K α (p110α/p85α))	IC50 (PI3K β (p110β/p85α))	IC50 (PI3K γ (p110γ))	IC50 (PI3K δ)	IC50 (PI3K β (p110β/p85α); Table 4 (PI3K α inhibitors))	IC50 (PI3K γ (p110γ); Table 4 (PI3K α inhibitors))	IC50 (PI3K δ; Table 4 (PI3K α inhibitors))	IC50 (PI3K α (p110α/p85α); Table 4 (PI3K α inhibitors))
CC1(C)CN(C(=O)c2cnc3ccc(-c4ccc5oc(N)nc5c4)cn23)CCO1 [Compound 513]	< 1 µM	> 10 µM	< 10 µM	> 10 µM				
Cc1ccn(C2CCN(C(=O)c3cnc4ccc(-c5ccc6oc(N)nc6c5)cn34)CC2)n1 [Compound 297]	< 1 µM	> 10 µM	< 10 µM	> 10 µM				
Nc1nc2cc(-c3cnc4ccc(C(=O)N5C6CCC5COC6)cn34)ccc2o1 [Compound 540]	> 10 µM	> 10 µM	> 10 µM	> 10 µM				
C[C@H]1COCCN1C(=O)c1cnc2ccc(-c3ccc4oc(N)nc4c3)cn12 [Compound 483]	< 0.1 µM	< 10 µM	< 10 µM	> 10 µM				
CN1CCN(c2cnc3ccc(-c4ccc5sc(N)nc5c4)cc3n2)CC1 [Compound 127]	< 1 µM	< 0.1 µM	< 10 µM	> 10 µM				
Cc1cc(-c2ccc3ncc(N4CC(N5CCOCC5)C4)nc3c2)cc2nc(N)oc12 [Compound 365]	< 10 µM	< 10 µM	< 10 µM	< 10 µM				
Nc1nc2cc(-c3ccc4ncc(N5CC(N6CCOCC6)C5)nc4c3)cc(F)c2o1 [Compound 361]	< 0.1 µM	< 1 µM	< 1 µM	< 10 µM				
CC(C)n1cnc2ccc(-c3ccc4oc(N)nc4c3)cc2c1=O [Compound 206]	< 0.1 µM	> 10 µM	< 1 µM	> 10 µM				
Nc1nc2cc(-c3ccc4ncc(C(=O)N5CC(N6CC[C@@H](O)C6)C5)n4c3)ccc2o1 [Compound 470]	< 0.1 µM	< 10 µM	< 1 µM					
CN1CCN(c2cnc3ccc(-c4ccc5oc(N)nc5c4)nc3c2)CC1 [Compound 575]					< 0.1 µM	< 1 µM		< 0.1 µM
C[C@H]1CN(C2CN(c3cnc4ccc(-c5ccc6oc(N)nc6c5)nc4n3)C2)CCN1C [Compound 572]					> 10 µM	> 10 µM		< 0.1 µM
C[C@@H]1CN(c2cnc3ccc(-c4ccc5oc(N)nc5c4)nc3n2)CCN1 [Compound 578]					< 0.1 µM	< 1 µM		< 0.1 µM
CS(=O)(=O)N1CCN(C2CN(c3cnc4ccc(-c5ccc6oc(N)nc6c5)nc4n3)C2)CC1 [Compound 559]					> 10 µM	< 1 µM		< 0.1 µM
O=C(c1cnc2ccc(-c3cnc4[nH]ncc4c3)cn12)N1CCOCC1 [Compound 492]		< 10 µM	< 10 µM	< 10 µM				
Cc1ncc(-c2ccc3ncc(C(=O)N4CCOCC4)n3c2)c2cc[nH]c12 [Compound 536]		> 10 µM	> 10 µM	> 10 µM				
CCN(CC)c1cnc2ccc(-c3ccc4oc(N)nc4c3)nc2n1 [Compound 577]					> 10 µM	< 1 µM		< 1 µM
CN1CCN([C@H]2CCN(c3cnc4ccc(-c5ccc6oc(N)nc6c5)cc4n3)C2)CC1 [Compound 381]	< 0.1 µM	< 1 µM	< 10 µM					
Cc1ncc(-c2ccc3ncc(C(=O)N4C5CCC4COC5)n3c2)c2cn[nH]c12 [Compound 538]	< 0.1 µM	> 10 µM	> 10 µM					
CC(C)N1CCN(c2cnc3ccc(-c4ccc5oc(N)nc5c4)nc3n2)CC1 [Compound 583]					< 1 µM	< 1 µM		< 0.1 µM
O=C(c1cnc2ccc(-c3ccnc4[nH]ncc34)cn12)N1CCOCC1 [Compound 532]		> 10 µM	> 10 µM	> 10 µM				

Source: patent US20150087627A1, “COMBINATION OF KINASE INHIBITORS AND USES THEREOF” (Intellikine LLC, priority 2011, published 2015)
